Results on twelve compounds are retold here after PubChem BioAssay (NCI).

SMILES strings stand for the structures.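 All cell lines were grown in 96-well plates and treated with compound for 48 hours. TGI is the concentration that stops growth completely.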

Some test systems named below: RXF-631 renal; SN12C renal; KM20L2 colon; M19-MEL melanoma; HOP-18 NSCLC; LXFL 529 NSCLC; DMS 273 small cell lung; DLD-1 colon; XF 498 CNS; DMS 114 small cell lung; MDA-N; SNB-78 CNS; HS 578T breast.
Test in all cases: NCI tumour cell line growth inhibition, 48 h

In the case of `Cc1ccc(S(=O)(=O)N[C@H](C(=O)O)c2ccccc2)cc1`, the TGI in the assay with RXF-631 renal, in the assay on SN12C renal, in the assay on KM20L2 colon, in the assay with M19-MEL melanoma, with HOP-18 NSCLC and in the assay with LXFL 529 NSCLC was more than 100 µM in each case. In addition, the TGI in the assay with DMS 273 small cell lung, with DLD-1 colon and in the assay on XF 498 CNS was more than 100 µM throughout.

For the compound `COc1ccc(C(=O)c2cc(OC)c(OC)c(OC)c2)cc1`, the TGI with RXF-631 renal, with SN12C renal, in the assay with M19-MEL melanoma, in the assay with HOP-18 NSCLC, in the assay on DMS 114 small cell lung and in the assay on LXFL 529 NSCLC was more than 100 µM each time. Also, the TGI in the assay on DMS 273 small cell lung is more than 100 µM; with MDA-N, 0.0452 µM; in the assay on DLD-1 colon it was more than 100 µM; in the assay on XF 498 CNS, more than 27.7 µM.

As to `NC1=NC(=O)/C(=C/c2ccccc2[N+](=O)[O-])C(N)=N1`, the TGI with RXF-631 renal, with SN12C renal, with KM20L2 colon, in the assay with M19-MEL melanoma, in the assay with HOP-18 NSCLC and in the assay on DMS 114 small cell lung was more than 100 µM in each case. The TGI in the assay on LXFL 529 NSCLC, with DMS 273 small cell lung, in the assay on SNB-78 CNS, in the assay with DLD-1 colon and in the assay on XF 498 CNS was more than 100 µM each time.

On to `CCOc1ccccc1NC(=O)CC1C(=O)Nc2ccccc2S1=O` (stereo not given), for which the TGI in the assay with SN12C renal, in the assay with KM20L2 colon, in the assay with M19-MEL melanoma, in the assay with DMS 114 small cell lung, in the assay on LXFL 529 NSCLC and with DMS 273 small cell lung was more than 100 µM in each case. Besides, the TGI with SNB-78 CNS, in the assay on DLD-1 colon and with XF 498 CNS was more than 100 µM throughout.

`C[N+](C)(C)CC1CCCC/C1=N\OC(=O)c1ccccc1` (stereo not given): the TGI in the assay with RXF-631 renal, in the assay with SN12C renal, in the assay on KM20L2 colon, in the assay with M19-MEL melanoma, in the assay with HOP-18 NSCLC and in the assay on DMS 114 small cell lung was more than 100 µM each time. Further, the TGI in the assay with LXFL 529 NSCLC, in the assay with DMS 273 small cell lung, in the assay with SNB-78 CNS and in the assay with DLD-1 colon was more than 100 µM throughout.

For `COc1cc(/C=C/c2ccncc2)cc(OC)c1OC`, the TGI in the assay on RXF-631 renal, in the assay with SN12C renal, with KM20L2 colon, with HOP-18 NSCLC, in the assay on DMS 114 small cell lung and in the assay with LXFL 529 NSCLC was more than 100 µM throughout. Besides, the TGI in the assay with DMS 273 small cell lung was more than 100 µM; in the assay with SNB-78 CNS, more than 100 µM; in the assay on DLD-1 colon, more than 100 µM; in the assay with XF 498 CNS, 91.3 µM.

`COc1cccc2c1C(=O)C=CC2=O`: the TGI in the assay with SN12C renal is 27.4 µM; in the assay on KM20L2 colon, 30.6 µM; in the assay with M19-MEL melanoma, 16.1 µM; with HOP-18 NSCLC, 23.6 µM; in the assay on DMS 114 small cell lung, 10.3 µM; in the assay with LXFL 529 NSCLC it was 6.37 µM. For the same compound, the TGI was 30.8 µM in the assay on DMS 273 small cell lung; 9.3 µM in the assay with SNB-78 CNS; 39 µM in the assay on DLD-1 colon; more than 100 µM in the assay with HS 578T breast; 5.25 µM in the assay with XF 498 CNS.

As to `Cc1ccccc1NC(=O)C(=O)C(C#N)c1ccc(Cl)cc1` (stereo not given), the TGI in the assay with RXF-631 renal, in the assay with SN12C renal, in the assay with KM20L2 colon, in the assay on HOP-18 NSCLC, in the assay on DMS 114 small cell lung and with LXFL 529 NSCLC was more than 100 µM in each case. In addition, the TGI in the assay on DMS 273 small cell lung, in the assay on SNB-78 CNS, in the assay on DLD-1 colon and in the assay on XF 498 CNS was more than 100 µM in each case.

Turning to `COC(=O)[C@@]12C(=O)C=CC(=O)[C@@H]1C1C(=CC2COC(C)=O)O[C@@H]2OC3(CCCCC3)O[C@H]12` (stereo not given in full), the TGI turned out to be 50 µM with RXF-631 renal; 29.1 µM with SN12C renal; 31.8 µM with KM20L2 colon; 29.6 µM in the assay with M19-MEL melanoma; 24.9 µM in the assay with HOP-18 NSCLC; 13.5 µM in the assay with DMS 114 small cell lung. For the same compound, the TGI with LXFL 529 NSCLC came out at 15 µM; in the assay on DMS 273 small cell lung it was 23.6 µM; in the assay on MDA-N, 25.1 µM; in the assay on SNB-78 CNS it was 51 µM; in the assay with DLD-1 colon, 22.7 µM; with HS 578T breast it was 31.6 µM. The compound also returned a TGI with XF 498 CNS of 26.3 µM.

In the case of `Cc1c2cc[n+](C)cc2c(C)c2c1sc1ccccc12`, the TGI in the assay on RXF-631 renal stood at 14.4 µM; in the assay with SN12C renal, 0.747 µM; with KM20L2 colon it was 31.8 µM; in the assay with M19-MEL melanoma, 4.04 µM; with HOP-18 NSCLC it was 36.2 µM; with DMS 114 small cell lung, 2.57 µM. The TGI in the assay on LXFL 529 NSCLC is 5.13 µM; in the assay on DMS 273 small cell lung, 7 µM; in the assay with MDA-N, 11.3 µM; with SNB-78 CNS it was 8.41 µM; with DLD-1 colon it was 51.2 µM; with HS 578T breast, 0.692 µM. Also, the TGI in the assay on XF 498 CNS amounted to 2.69 µM.

On to `CC1CC(C2=CC=CCS2)=Nc2ccccc2S1` (stereo not given), for which the TGI with RXF-631 renal, in the assay with SN12C renal, with KM20L2 colon, in the assay with M19-MEL melanoma, in the assay with HOP-18 NSCLC and with LXFL 529 NSCLC was more than 100 µM throughout. The TGI in the assay with DMS 273 small cell lung, in the assay on SNB-78 CNS, in the assay on DLD-1 colon and with XF 498 CNS was more than 100 µM each time.

As to `COc1ccccc1/C=C(\C#N)c1ccccc1`, the TGI in the assay with SN12C renal is more than 100 µM; in the assay with KM20L2 colon, more than 100 µM; in the assay with M19-MEL melanoma it was more than 100 µM; in the assay on HOP-18 NSCLC, more than 100 µM; in the assay with DMS 114 small cell lung, 46.2 µM; in the assay on LXFL 529 NSCLC, more than 100 µM. Besides, the TGI with DMS 273 small cell lung was 50 µM; in the assay on SNB-78 CNS, more than 100 µM; in the assay with DLD-1 colon, more than 100 µM.
